In PubChem BioAssay (NCI):
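A five-concentration, 48-hour dose response in 96-well plates underlies each endpoint, interpolated linearly between surrounding concentrations. TGI: total growth inhibition.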

Legend:
Assay in all cases: DTP human tumour cell line panel, 48 h
SNB-78 CNS = system: SNB-78 CNS
HOP-92 NSCLC = system: HOP-92 NSCLC
NCI-H522 lung = system: NCI-H522 lung
CAKI-1 renal = system: CAKI-1 renal
TK-10 renal = system: TK-10 renal
SK-MEL-28 melanoma = system: SK-MEL-28 melanoma
SNB-19 CNS = system: SNB-19 CNS
SF-268 CNS = system: SF-268 CNS
XF 498 CNS = system: XF 498 CNS
UO-31 renal = system: UO-31 renal
U251 CNS = system: U251 CNS
UACC-257 melanoma = system: UACC-257 melanoma
DLD-1 colon = system: DLD-1 colon
HOP-18 NSCLC = system: HOP-18 NSCLC
OVCAR-4 ovarian = system: OVCAR-4 ovarian
HL-60(TB) leukemia = system: HL-60(TB) leukemia
SF-539 CNS = system: SF-539 CNS
NCI-H460 lung = system: NCI-H460 lung
SK-MEL-2 melanoma = system: SK-MEL-2 melanoma
RXF-631 renal = system: RXF-631 renal
HCT-116 colon = system: HCT-116 colon
SW-620 colon = system: SW-620 colon
RPMI-8226 leukemia = system: RPMI-8226 leukemia
EKVX NSCLC = system: EKVX NSCLC
OVCAR-3 ovarian = system: OVCAR-3 ovarian
HCT-15 colon = system: HCT-15 colon
KM12 colon = system: KM12 colon
OVCAR-8 ovarian = system: OVCAR-8 ovarian
IGROV1 ovarian = system: IGROV1 ovarian
M19-MEL melanoma = system: M19-MEL melanoma
A549 NSCLC = system: A549 NSCLC
HCC-2998 colon = system: HCC-2998 colon
MALME-3M melanoma = system: MALME-3M melanoma
ACHN renal = system: ACHN renal
HT29 colon = system: HT29 colon
M14 melanoma = system: M14 melanoma
CCRF-CEM leukemia = system: CCRF-CEM leukemia
NCI-H23 lung = system: NCI-H23 lung
K-562 leukemia = system: K-562 leukemia
SK-OV-3 ovarian = system: SK-OV-3 ovarian
786-0 renal = system: 786-0 renal
SK-MEL-5 melanoma = system: SK-MEL-5 melanoma
RXF 393 renal = system: RXF 393 renal
SR leukemia = system: SR leukemia
SN12C renal = system: SN12C renal
MOLT-4 leukemia = system: MOLT-4 leukemia
LXFL 529 NSCLC = system: LXFL 529 NSCLC
UACC-62 melanoma = system: UACC-62 melanoma
DMS 114 small cell lung = system: DMS 114 small cell lung
NCI-H226 lung = system: NCI-H226 lung
LOX IMVI melanoma = system: LOX IMVI melanoma
SF-295 CNS = system: SF-295 CNS
HOP-62 NSCLC = system: HOP-62 NSCLC
OVCAR-5 ovarian = system: OVCAR-5 ovarian
A498 renal = system: A498 renal
COLO 205 colon = system: COLO 205 colon
SNB-75 CNS = system: SNB-75 CNS
DMS 273 small cell lung = system: DMS 273 small cell lung

In the case of `O=C(O)CSc1n[nH]c(Cc2ccccc2)n1`, the TGI (SNB-78 CNS) was over 100 µM, the TGI (HOP-92 NSCLC) was over 100 µM and the TGI (NCI-H522 lung) was over 100 µM. For the same molecule, the TGI (CAKI-1 renal) was over 100 µM, the TGI (TK-10 renal) was over 100 µM and the TGI (SK-MEL-28 melanoma) was over 100 µM. It also gave a TGI (SNB-19 CNS) of over 100 µM, a TGI (SF-268 CNS) of over 100 µM and a TGI (XF 498 CNS) of over 100 µM. For the same molecule, the TGI (UO-31 renal) was over 100 µM, the TGI (U251 CNS) was over 100 µM and the TGI (UACC-257 melanoma) was over 100 µM. The TGI (DLD-1 colon) was over 100 µM, the TGI (HOP-18 NSCLC) was over 100 µM and the TGI (OVCAR-4 ovarian) was over 100 µM. The TGI (HL-60(TB) leukemia) was over 100 µM, the TGI (SF-539 CNS) was over 100 µM and the TGI (NCI-H460 lung) was over 100 µM. For the same molecule, the TGI (SK-MEL-2 melanoma) was over 100 µM, the TGI (RXF-631 renal) was over 100 µM and the TGI (HCT-116 colon) was over 100 µM. The TGI (SW-620 colon) was over 100 µM, the TGI (RPMI-8226 leukemia) was over 100 µM and the TGI (EKVX NSCLC) was over 100 µM. For the same molecule, the TGI (OVCAR-3 ovarian) was over 100 µM, the TGI (HCT-15 colon) was over 100 µM and the TGI (KM12 colon) was over 100 µM. For the same molecule, the TGI (OVCAR-8 ovarian) was over 100 µM, the TGI (IGROV1 ovarian) was over 100 µM and the TGI (M19-MEL melanoma) was over 100 µM. The TGI (A549 NSCLC) was over 100 µM, the TGI (HCC-2998 colon) was over 100 µM and the TGI (MALME-3M melanoma) was over 100 µM. It also gave a TGI (ACHN renal) of over 100 µM, a TGI (HT29 colon) of over 100 µM and a TGI (M14 melanoma) of over 100 µM. It also gave a TGI (CCRF-CEM leukemia) of over 100 µM, a TGI (NCI-H23 lung) of over 100 µM and a TGI (K-562 leukemia) of over 100 µM. For the same molecule, the TGI (SK-OV-3 ovarian) was over 100 µM, the TGI (786-0 renal) was over 100 µM and the TGI (SK-MEL-5 melanoma) was over 100 µM. The TGI (RXF 393 renal) was over 100 µM, the TGI (SR leukemia) was over 100 µM and the TGI (SN12C renal) was over 100 µM. It also gave a TGI (MOLT-4 leukemia) of over 100 µM, a TGI (LXFL 529 NSCLC) of over 100 µM and a TGI (UACC-62 melanoma) of over 100 µM. For the same molecule, the TGI (DMS 114 small cell lung) was over 100 µM, the TGI (NCI-H226 lung) was over 100 µM and the TGI (LOX IMVI melanoma) was over 100 µM. For the same molecule, the TGI (SF-295 CNS) was over 100 µM, the TGI (HOP-62 NSCLC) was over 100 µM and the TGI (OVCAR-5 ovarian) was over 100 µM.

In the case of `O=c1c2ccccc2nc(-c2ccccc2)n1NC(=S)Nc1ccccc1`, the TGI (HOP-92 NSCLC) was over 100 µM, the TGI (NCI-H522 lung) was over 100 µM and the TGI (CAKI-1 renal) was over 100 µM. For the same molecule, the TGI (TK-10 renal) was over 100 µM, the TGI (SK-MEL-28 melanoma) was over 100 µM and the TGI (A498 renal) was over 100 µM. It also gave a TGI (SF-268 CNS) of over 100 µM, a TGI (UO-31 renal) of over 100 µM and a TGI (U251 CNS) of over 100 µM. For the same molecule, the TGI (UACC-257 melanoma) was over 100 µM, the TGI (DLD-1 colon) was over 100 µM and the TGI (HOP-18 NSCLC) was over 100 µM. The TGI (OVCAR-4 ovarian) was over 100 µM, the TGI (HL-60(TB) leukemia) was over 100 µM and the TGI (SF-539 CNS) was over 100 µM. The TGI (NCI-H460 lung) was over 100 µM, the TGI (SK-MEL-2 melanoma) was over 100 µM and the TGI (HCT-116 colon) was over 100 µM. It also gave a TGI (SW-620 colon) of over 100 µM, a TGI (RPMI-8226 leukemia) of over 100 µM and a TGI (HCT-15 colon) of over 100 µM. For the same molecule, the TGI (KM12 colon) was over 100 µM, the TGI (OVCAR-8 ovarian) was over 100 µM and the TGI (IGROV1 ovarian) was over 100 µM. For the same molecule, the TGI (M19-MEL melanoma) was over 100 µM, the TGI (A549 NSCLC) was over 100 µM and the TGI (COLO 205 colon) was over 100 µM. It also gave a TGI (MALME-3M melanoma) of over 100 µM, a TGI (ACHN renal) of over 100 µM and a TGI (HT29 colon) of over 100 µM. It also gave a TGI (M14 melanoma) of over 100 µM, a TGI (CCRF-CEM leukemia) of over 100 µM and a TGI (NCI-H23 lung) of over 100 µM. It also gave a TGI (K-562 leukemia) of over 100 µM, a TGI (SNB-75 CNS) of over 100 µM and a TGI (SK-OV-3 ovarian) of over 100 µM. It also gave a TGI (786-0 renal) of over 100 µM, a TGI (SK-MEL-5 melanoma) of over 100 µM and a TGI (RXF 393 renal) of over 100 µM. The TGI (SR leukemia) was over 100 µM, the TGI (SN12C renal) was over 100 µM and the TGI (MOLT-4 leukemia) was over 100 µM. For the same molecule, the TGI (DMS 273 small cell lung) was over 100 µM, the TGI (LXFL 529 NSCLC) was over 100 µM and the TGI (UACC-62 melanoma) was over 100 µM. It also gave a TGI (DMS 114 small cell lung) of 73.7 µM, a TGI (NCI-H226 lung) of over 100 µM and a TGI (LOX IMVI melanoma) of over 100 µM. It also gave a TGI (SF-295 CNS) of over 100 µM, a TGI (HOP-62 NSCLC) of over 100 µM and a TGI (OVCAR-5 ovarian) of over 100 µM.
